In patent US6642216B2, “Isoprenoid pathway inhibitors for stimulating bone growth” (ZymoGenetics Corporation, priority 1996, dated 2003):

How the values were obtained:
[1] = tested on: BMP-2 promoter; assay: ABA assay: BMP-2 promoter-luciferase reporter in 2T3-BMP-2-LUC osteoblast cells; type: cell-based, mouse
Description: These transformed cells are then evaluated for the production of the reporter gene product; compounds that activate the BMP promoter will drive production of the reporter protein, which can be readily assayed.
The cells were cultured using α-MEM, 10% FCS with 1% penicillin/streptomycin and 1% glutamine (“plating medium”), and were split 1:5 once per week. For the assay, the cells were resuspended in a plating medium containing 4% FCS, plated in microtiter plates at a concentration of 5×10^3 cells (in 50 μl)/well, and incubated for 24 hours at 37° C. in 5% CO2. To initiate the assay, 50 μl of the test compound or the control in DMSO was added at 2× concentration to each well, so that the final volume was 100 μl. The final serum concentration was 2% FCS, and the final DMSO concentration was 1%.
The treated cells were incubated for 24 hours at 37° C. and 5% CO2. The medium was then removed, and the cells were rinsed three times with PBS. After removal of excess PBS, 25 μl of 1× cell culture lysing reagent (Promega #E153A) was added to each well and incubated for at least ten minutes. Optionally, the plates/samples could be frozen at this point. To each well was added 50 μl of luciferase substrate (Promega #E152A; 10 ml Promega luciferase assay buffer per 7 mg Promega luciferase assay substrate). Luminescence was measured on an automated 96-well luminometer, and was expressed as either picograms of luciferase activity per well or as picograms of luciferase activity per microgram of protein.
Alternatively, the reactivity of a compound to be tested can be compared directly to a negative control containing no compound.

[2] = tested on: neonatal mouse calvaria; assay: Neonatal mouse calvaria assay (in vitro bone formation); type: cell-based; set-up: Osteoblast Number, % increase over vehicle control / New Bone Area, % increase over vehicle control: concentration or dose not given beside the values
Description: Briefly, four days after birth, the front and parietal bones of ICR Swiss white mouse pups are removed by microdissection and split along the sagittal suture.
Three μm sections of the calvaria are prepared. Representative sections are selected for histomorphometric assessment of bone formation or bone resorption. Bone changes are measured on sections cut 200 μm apart. Osteoblasts and osteoclasts are identified by their distinctive morphology.
Selected compounds and appropriate controls were assayed in vitro (ex vivo) for bone formation activity (described above in “Neonatal Mouse Calvaria Assay (in vitro)”). Histomorphometrical assessments of ex vivo calvaria were carried out using an OsteoMetrics bone morphometry measurement program, according to the manufacturer's instructions. Measurements were determined using either a 10- or 20-fold objective with a standard point counting eyepiece graticule.
New bone formation was determined (using a 10× objective) by measuring the new bone area formed in one field in 3 representative sections of each bone (4 bones per group). Each measurement was carried out ½ field distance from the end of the suture. Both total bone and old bone area were measured. Data were expressed as new bone area in mm^2.
Osteoblast numbers were determined by point counting. The number of osteoblast cells lining the bone surface on both sides of the bone were counted in one field using a 20× objective. Data were expressed as osteoblast numbers/mm of bone surface.
The results were calculated as new bone area in mm^2×10^−3, as above.

[3] = tested on: ICR Swiss white mice calvaria; assay: In vivo murine calvarial bone growth assay; set-up: species or system mouse; conditions: 12.5 μg/kg/day
Description: Male ICR Swiss white mice, aged 4-6 weeks and weighing 13-26 gm, are employed, using 4-5 mice per group. The calvarial bone growth assay is performed as described in PCT application WO 95/24211, incorporated by reference. Briefly, the test compound or appropriate control vehicle is injected into the subcutaneous tissue over the right calvaria of normal mice. Typically, the control vehicle is the vehicle in which the compound was solubilized, and is PBS containing 5% DMSO or is PBS containing Tween (2 μl/10 ml). The animals are sacrificed on day 14 and bone growth measured by histomorphometry. Bone samples for quantitation are cleaned from adjacent tissues and fixed in 10% buffered formalin for 24-48 hours, decalcified in 14% EDTA for 1-3 weeks, processed through graded alcohols; and embedded in paraffin wax. Three to five μm sections of the calvaria are prepared, and representative sections are selected for histomorphometric assessment of the effects on bone formation and bone resorption. Sections are measured by using a camera lucida attachment to trace directly the microscopic image onto a digitizing plate. Bone changes are measured on sections cut 200 μm apart, over 4 adjacent 1×1 mm fields on both the injected and noninjected sides of the calvaria. New bone is identified by its characteristic woven structure, and osteoclasts and osteoblasts are identified by their distinctive morphology. Histomorphometry software (OsteoMeasure, Osteometrix, Inc., Atlanta) is used to process digitizer input to determine cell counts and measure areas or perimeters.
The results are reported as a measurement of total bone area (and % increase in area over vehicle control), as shown below.

[4] = Experiment 3, 8.88178E μg/ml (0.002193 μM lovastatin, 0.002087 μM fluvastatin)

Compound | % 59-0008 Response ([1]; Experiment 1, 0.195312 μg/ml) [%] | Fold increase over negative control ([1]; Experiment 1, 0.195312 μg/ml) [fold] | % 59-0008 Response ([1]; Experiment 1, 0.390625 μg/ml) [%] | Fold increase over negative control ([1]; Experiment 1, 0.390625 μg/ml) [fold] | % 59-0008 Response ([1]; Experiment 1, 0.78125 μg/ml) [%] | Fold increase over negative control ([1]; Experiment 1, 0.78125 μg/ml) [fold] | % 59-0008 Response ([1]; Experiment 1, 1.5625 μg/ml) [%] | Fold increase over negative control ([1]; Experiment 1, 1.5625 μg/ml) [fold] | % 59-0008 Response ([1]; Experiment 1, 3.125 μg/ml) [%] | Fold increase over negative control ([1]; Experiment 1, 3.125 μg/ml) [fold] | % 59-0008 Response ([1]; Experiment 1, 6.25 μg/ml) [%] | Fold increase over negative control ([1]; Experiment 1, 6.25 μg/ml) [fold] | % 59-0008 Response ([1]; Experiment 1, 12.5 μg/ml) [%] | Fold increase over negative control ([1]; Experiment 1, 12.5 μg/ml) [fold] | % 59-0008 Response ([1]; Experiment 1, 25 μg/ml) [%] | Fold increase over negative control ([1]; Experiment 1, 25 μg/ml) [fold] | % 59-0008 Response ([1]; Experiment 1, 50 μg/ml) [%] | Fold increase over negative control ([1]; Experiment 1, 50 μg/ml) [fold] | % 59-0008 Response ([1]; Experiment 1, 200 μg/ml) [%] | Fold increase over negative control ([1]; Experiment 1, 200 μg/ml) [fold] | further results
c1ccc(N=NC2=NNc3ccccc3S2)cc1 [59-0008, 3-phenylazo-1H-4,1,2-benzothiadiazine] | – | – | – | – | – | – | – | – | – | – | – | – | – | – | – | – | – | – | – | – | concentration at which reactivity is maximal [1]: 3 to 10 µM
O=P(O)(O)C(Cl)(Cl)P(=O)(O)O [Clodronate, clodronate] | – | – | – | – | – | – | – | – | – | – | – | – | – | – | – | – | – | – | – | – | New Bone Area ([2]; other bisphosphonates, 10 μM): 4.8 ± 1.3 mm^2 × 10^−3; New Bone Area ([2]; other bisphosphonates, 100 μM): 4.6 ± 0.6 mm^2 × 10^−3; New Bone Area ([2]; other bisphosphonates, 1000 μM): 3.5 ± 0.5 mm^2 × 10^−3; effect on new bone area ([2]; under these conditions (0.1-1000 μM)): negligible effects
CC[C@H](C)C(=O)O[C@H]1C[C@H](O)C=C2C=C[C@H](C)[C@H](CC[C@@H](O)C[C@@H](O)CC(=O)O)[C@H]21 [Pravastatin, pravastatin] | −4.390 | 0.807 | −1.290 | 0.943 | −1.980 | 0.913 | −1.120 | 0.951 | 0.380 | 1.017 | 0.920 | 1.040 | 1.110 | 1.049 | 3.520 | 1.155 | 5.000 | 1.220 | 11.670 | 1.513 | % 59-0008 Response ([1]; Experiment 1, 100 μg/ml): 7.620%; Fold increase over negative control ([1]; Experiment 1, 100 μg/ml): 1.335 fold
CC(C)n1c(/C=C/C(O)CC(O)CC(=O)O)c(-c2ccc(F)cc2)c2ccccc21 (centres unmarked) [Fluvastatin, fluvastatin] | 36.820 | 2.630 | 28.080 | 2.243 | 75.160 | 4.328 | 117.980 | 6.223 | 173.280 | 8.672 | 165.630 | 8.333 | 164.450 | 8.281 | 137.500 | 7.088 | −22.660 | −0.003 | −22.700 | −0.005 | % 59-0008 Response ([1]; Experiment 3, 0.002842 μg/ml): −3.26%; Fold increase over negative control ([1]; Experiment 3, 0.002842 μg/ml): 0.83 fold; % 59-0008 Response ([1]; Experiment 3, 0.009094 μg/ml): −3.84%; Fold increase over negative control ([1]; Experiment 3, 0.009094 μg/ml): 0.8 fold; % 59-0008 Response ([1]; Experiment 3, 0.029103 μg/ml): −5.18%; Fold increase over negative control ([1]; Experiment 3, 0.029103 μg/ml): 0.73 fold; % 59-0008 Response ([1]; Experiment 3, 0.093132 μg/ml): −2.11%; Fold increase over negative control ([1]; Experiment 3, 0.093132 μg/ml): 0.89 fold; % 59-0008 Response ([1]; Experiment 3, 0.298023 μg/ml): −3.26%; Fold increase over negative control ([1]; Experiment 3, 0.298023 μg/ml): 0.83 fold; % 59-0008 Response ([1]; Experiment 3, 0.953674 μg/ml): 2.3%; Fold increase over negative control ([1]; Experiment 3, 0.953674 μg/ml): 1.12 fold; % 59-0008 Response ([1]; Experiment 3, 3.051757 μg/ml): 22.66%; Fold increase over negative control ([1]; Experiment 3, 3.051757 μg/ml): 2.18 fold; % 59-0008 Response ([1]; Experiment 3, 9.765625 μg/ml): 103.7%; Fold increase over negative control ([1]; Experiment 3, 9.765625 μg/ml): 6.4 fold; % 59-0008 Response ([1]; Experiment 3, 31.25 μg/ml): 122.53%; Fold increase over negative control ([1]; Experiment 3, 31.25 μg/ml): 7.38 fold; % 59-0008 Response [1, 4]: −0.19%; Fold increase over negative control [1, 4]: 0.99 fold
bFGF: control factor, "gold standard" agent for bone growth | – | – | – | – | – | – | – | – | – | – | – | – | – | – | – | – | – | – | – | – | % increase in total bone area over vehicle control [3]: 45%; Total Bone Area [3]: 242 μm^2; New Bone Area ([2]; Experiment 1, 3 days): 5.7 mm^2 × 10^−3; New Bone Area, % increase over vehicle control ([2]; Experiment 1, 3 days): 19%; Osteoblast Number ([2]; Experiment 1, 3 days): 179.25 Obs/field; Osteoblast Number, % increase over vehicle control ([2]; Experiment 1, 3 days): 84%; New Bone Area ([2]; Experiment 1, 7 days): 18.1 mm^2 × 10^−3; New Bone Area, % increase over vehicle control ([2]; Experiment 1, 7 days): 132%; Osteoblast Number ([2]; Experiment 1, 7 days): 168.7 Obs/field; Osteoblast Number, % increase over vehicle control ([2]; Experiment 1, 7 days): 82%
